What all share (type): protein assay
Test [1] deals with T1, Alpha-1,2-mannosidase (BT_2111) (Bacteroides thetaiotaomicron) (UniProt Q8A5X5).
T1 sequence (whole entry): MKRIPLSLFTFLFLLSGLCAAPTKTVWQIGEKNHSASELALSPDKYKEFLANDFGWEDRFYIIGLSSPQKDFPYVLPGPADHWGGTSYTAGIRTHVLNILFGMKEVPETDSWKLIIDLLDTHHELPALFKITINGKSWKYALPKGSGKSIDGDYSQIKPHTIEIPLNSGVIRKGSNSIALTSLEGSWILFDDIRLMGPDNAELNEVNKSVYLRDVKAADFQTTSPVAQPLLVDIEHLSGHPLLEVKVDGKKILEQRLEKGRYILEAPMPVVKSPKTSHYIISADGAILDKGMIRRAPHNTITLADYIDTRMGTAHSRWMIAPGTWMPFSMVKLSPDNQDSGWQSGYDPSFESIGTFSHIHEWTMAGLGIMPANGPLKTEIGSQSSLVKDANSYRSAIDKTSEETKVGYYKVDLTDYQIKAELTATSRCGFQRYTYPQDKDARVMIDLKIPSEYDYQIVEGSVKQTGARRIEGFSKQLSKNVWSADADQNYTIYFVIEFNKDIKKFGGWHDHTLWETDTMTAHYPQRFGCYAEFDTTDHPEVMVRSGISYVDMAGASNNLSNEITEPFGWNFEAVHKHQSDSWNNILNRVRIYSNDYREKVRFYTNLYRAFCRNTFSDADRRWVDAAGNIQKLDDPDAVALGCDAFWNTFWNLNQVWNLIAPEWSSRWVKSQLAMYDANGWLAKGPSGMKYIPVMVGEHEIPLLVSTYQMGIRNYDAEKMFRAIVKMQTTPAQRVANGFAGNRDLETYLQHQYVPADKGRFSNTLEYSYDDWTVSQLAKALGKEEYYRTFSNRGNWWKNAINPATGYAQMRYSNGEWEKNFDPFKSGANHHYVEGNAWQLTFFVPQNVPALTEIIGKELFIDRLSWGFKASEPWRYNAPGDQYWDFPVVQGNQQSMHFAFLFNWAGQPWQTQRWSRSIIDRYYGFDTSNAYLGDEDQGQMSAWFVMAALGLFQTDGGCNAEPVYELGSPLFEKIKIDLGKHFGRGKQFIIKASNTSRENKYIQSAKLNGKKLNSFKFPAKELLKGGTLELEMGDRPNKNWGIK
Put plainly: Activity of Bacteroides thetaiotaomicron GH92 alpha-mannosidase GH92 alpha-mannosidase 2111 assessed as mannose release at 1 mM after 16 hrs by HPLC relative to untreated control after 16 hrs by HPLC.

The target of test [2] is T2, Alpha-1,2-mannosidase, putative (BT_3773) (Bacteroides thetaiotaomicron) (UniProt Q8A193).
T2 sequence (whole entry): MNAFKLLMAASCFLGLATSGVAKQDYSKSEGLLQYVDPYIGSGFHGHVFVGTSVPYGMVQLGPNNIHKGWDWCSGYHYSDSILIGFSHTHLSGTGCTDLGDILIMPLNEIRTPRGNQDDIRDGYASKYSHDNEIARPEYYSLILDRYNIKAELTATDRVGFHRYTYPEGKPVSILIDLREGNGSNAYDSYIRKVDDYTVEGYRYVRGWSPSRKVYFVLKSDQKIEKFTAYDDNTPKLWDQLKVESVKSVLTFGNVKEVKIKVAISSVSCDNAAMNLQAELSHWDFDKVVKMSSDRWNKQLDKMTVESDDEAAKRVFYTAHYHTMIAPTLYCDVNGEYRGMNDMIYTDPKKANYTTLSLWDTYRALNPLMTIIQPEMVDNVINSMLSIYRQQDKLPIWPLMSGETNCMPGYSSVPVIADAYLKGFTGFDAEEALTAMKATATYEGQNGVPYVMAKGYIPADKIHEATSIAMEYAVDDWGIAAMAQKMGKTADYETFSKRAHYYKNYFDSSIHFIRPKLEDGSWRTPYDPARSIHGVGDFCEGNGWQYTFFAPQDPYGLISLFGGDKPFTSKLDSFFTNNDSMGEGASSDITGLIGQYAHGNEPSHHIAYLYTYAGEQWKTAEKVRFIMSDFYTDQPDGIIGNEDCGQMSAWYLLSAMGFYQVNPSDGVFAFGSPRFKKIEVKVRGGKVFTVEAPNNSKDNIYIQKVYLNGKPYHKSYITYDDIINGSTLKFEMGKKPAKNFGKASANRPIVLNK
Put plainly: Activity of Bacteroides thetaiotaomicron GH92 alpha-mannosidase GH92 alpha-mannosidase 3773 assessed as mannose release at 1 mM after 16 hrs by HPLC relative to untreated control after 16 hrs by HPLC.

Test [3] has as its target T3, Alpha-1,2-mannosidase family protein (BT_4093) (Bacteroides thetaiotaomicron) (UniProt Q8A0C8).
T3 sequence (whole entry): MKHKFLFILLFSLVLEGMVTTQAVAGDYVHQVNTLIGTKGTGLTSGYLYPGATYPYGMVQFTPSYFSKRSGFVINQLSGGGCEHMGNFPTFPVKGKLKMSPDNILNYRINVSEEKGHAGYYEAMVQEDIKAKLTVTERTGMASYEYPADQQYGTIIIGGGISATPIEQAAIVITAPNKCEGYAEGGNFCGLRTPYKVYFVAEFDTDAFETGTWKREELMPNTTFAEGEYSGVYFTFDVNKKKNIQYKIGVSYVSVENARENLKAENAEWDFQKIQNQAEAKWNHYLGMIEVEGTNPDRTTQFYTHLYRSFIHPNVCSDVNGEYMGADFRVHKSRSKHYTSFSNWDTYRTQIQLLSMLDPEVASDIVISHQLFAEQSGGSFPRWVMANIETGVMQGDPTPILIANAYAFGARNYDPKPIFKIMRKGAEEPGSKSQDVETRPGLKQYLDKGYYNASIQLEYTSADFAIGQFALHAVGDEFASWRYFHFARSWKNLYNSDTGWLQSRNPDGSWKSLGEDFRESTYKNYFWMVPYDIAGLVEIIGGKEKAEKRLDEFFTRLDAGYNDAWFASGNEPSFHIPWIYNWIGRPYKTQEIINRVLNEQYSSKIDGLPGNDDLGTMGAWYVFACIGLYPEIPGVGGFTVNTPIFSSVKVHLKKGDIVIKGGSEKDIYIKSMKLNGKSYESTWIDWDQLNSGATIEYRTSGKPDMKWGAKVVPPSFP
Briefly: Activity of Bacteroides thetaiotaomicron GH92 alpha-mannosidase GH92 alpha-mannosidase 4093 assessed as mannose release at 1 mM after 16 hrs by HPLC relative to untreated control after 16 hrs by HPLC.

Activity calls are given as the source filed them. The rule behind the calls is not given here.

On to `OC[C@H]1O[C@H](O[C@H]2[C@@H](O)[C@H](O)[C@@H](CO)O[C@@H]2O)[C@@H](O)[C@@H](O)[C@@H]1O`, for which the result in test [1] and in test [3] was inactive. Besides, the Activity in test [2] was 0.91%.

On to `OC[C@H]1O[C@H](O[C@H]2[C@H](O)[C@H](O)[C@@H](O)O[C@@H]2CO)[C@@H](O)[C@@H](O)[C@@H]1O`, for which the result in test [1] was inactive. For the same compound, the Activity in test [2] stood at 4.7%; in test [3], 100%.

On to `OC[C@H]1O[C@H](OC[C@H]2O[C@H](O)[C@@H](O)[C@@H](O)[C@@H]2O)[C@@H](O)[C@@H](O)[C@@H]1O`, for which the result in test [1] and in test [3] was inactive. Also, the Activity in test [2] worked out at 0.0088%.

Consider `OC[C@H]1O[C@H](O[C@@H]2[C@H](O)[C@@H](O)O[C@H](CO)[C@H]2O)[C@@H](O)[C@@H](O)[C@@H]1O`, for which the result in test [1] and in test [3] was inactive.

The values are drawn from ChEMBL document CHEMBL1250451, “Mechanistic insights into a Ca2+-dependent family of alpha-mannosidases in a human gut symbiont” (Nat Chem Biol, 2010).
